Assays:
[1] = target: Delta-type opioid receptor (Homo sapiens, UniProt P41143); format: cell membranes, HEK293, Membrane; settings: hek293; also: in other assays of this panel Not Active means under 50% inhibition at 10 µM
[2] = target: T1, Muscarinic acetylcholine receptor M4 (Homo sapiens, UniProt P08173); format: cell membranes, CHO-K1, Membrane; settings: cho-k1; also: in other assays of this panel Not Active means under 50% inhibition at 10 µM
T1 sequence (P08173 whole entry): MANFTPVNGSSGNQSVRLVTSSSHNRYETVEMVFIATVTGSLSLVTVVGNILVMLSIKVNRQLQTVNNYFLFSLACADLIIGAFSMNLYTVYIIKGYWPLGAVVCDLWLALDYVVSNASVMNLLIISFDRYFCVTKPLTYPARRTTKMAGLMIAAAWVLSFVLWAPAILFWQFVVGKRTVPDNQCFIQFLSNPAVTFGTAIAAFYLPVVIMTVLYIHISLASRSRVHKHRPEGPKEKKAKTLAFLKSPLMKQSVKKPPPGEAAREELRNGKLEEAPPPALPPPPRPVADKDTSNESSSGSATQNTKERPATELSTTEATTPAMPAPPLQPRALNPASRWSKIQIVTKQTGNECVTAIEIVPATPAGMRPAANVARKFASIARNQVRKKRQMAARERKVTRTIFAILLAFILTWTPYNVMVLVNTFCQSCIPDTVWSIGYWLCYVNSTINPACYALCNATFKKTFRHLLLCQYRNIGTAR

[3] = DRUGMATRIX: Calcium Channel Type L, Benzothiazepine radioligand binding (ligand: [3H] Diltiazem); format: cell membranes, Rattus norvegicus, Wistar, Brain, Membrane; settings: Not Active = under 50% inhibition at 10 µM
Adenosine receptor A2a = Adenosine receptor A2a (Homo sapiens, UniProt P29274); assay: DRUGMATRIX: Adenosine A2A radioligand binding (ligand: […]); format: cell membranes, HEK293, Membrane; settings: hek293; Not Active = under 50% inhibition at 10 µM
Chain of Adenosine receptor A2a (P29274 whole entry): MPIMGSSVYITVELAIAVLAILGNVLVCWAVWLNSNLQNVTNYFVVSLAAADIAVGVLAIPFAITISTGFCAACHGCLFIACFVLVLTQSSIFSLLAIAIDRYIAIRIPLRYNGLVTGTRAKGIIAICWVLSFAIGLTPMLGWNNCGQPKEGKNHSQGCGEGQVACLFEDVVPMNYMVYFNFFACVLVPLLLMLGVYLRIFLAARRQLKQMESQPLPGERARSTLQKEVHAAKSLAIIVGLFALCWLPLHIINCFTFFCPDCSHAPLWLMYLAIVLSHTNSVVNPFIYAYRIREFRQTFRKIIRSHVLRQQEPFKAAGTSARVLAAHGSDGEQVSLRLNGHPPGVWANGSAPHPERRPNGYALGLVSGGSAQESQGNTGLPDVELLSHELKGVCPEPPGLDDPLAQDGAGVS

[4] = DRUGMATRIX: Tumor Necrosis Factor (TNF), Non-Selective radioligand binding (ligand: [125I] TNF-alpha); format: cell membranes, Membrane; settings: u-937; Not Active = under 50% inhibition at 10 µM
[5] = DRUGMATRIX: ATPase, Na+/K+ enzyme inhibition (substrate: ATP); format: tissue-based, Sus scrofa, Heart; settings: Not Active = under 50% inhibition at 10 µM
[6] = DRUGMATRIX: Calcium Channel Type L, Dihydropyridine radioligand binding (ligand: [3H] Nitrendipine); format: cell membranes, Rattus norvegicus, Wistar, Cerebral cortex, Membrane; settings: Not Active = under 50% inhibition at 10 µM

Chain of Delta-type opioid receptor (P41143 whole entry): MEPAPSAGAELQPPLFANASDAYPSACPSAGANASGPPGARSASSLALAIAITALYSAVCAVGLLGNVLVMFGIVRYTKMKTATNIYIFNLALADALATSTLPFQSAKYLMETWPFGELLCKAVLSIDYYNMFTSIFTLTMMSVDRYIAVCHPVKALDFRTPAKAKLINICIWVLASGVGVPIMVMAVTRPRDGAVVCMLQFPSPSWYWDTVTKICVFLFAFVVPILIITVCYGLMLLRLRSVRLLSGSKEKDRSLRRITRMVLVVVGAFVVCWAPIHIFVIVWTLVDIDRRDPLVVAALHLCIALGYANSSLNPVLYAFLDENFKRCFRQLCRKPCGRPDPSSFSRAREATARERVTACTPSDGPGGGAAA

O=C(O)c1cccnc1 [NIACIN]
Not Active: IC50 [1] | IC50 [2] | IC50 [3] | Ki [3] | IC50 (Adenosine receptor A2a) | IC50 [4] | Ki [4] | IC50 [5] | Ki [5] | IC50 [6] | Ki [6]

CNC(=C[N+](=O)[O-])NCCSCc1csc(CN(C)C)n1 [NIZATIDINE]
Not Active: IC50 [1] | IC50 [2] | IC50 [3] | Ki [3] | IC50 (Adenosine receptor A2a) | IC50 [4] | Ki [4] | IC50 [5] | Ki [5] | IC50 [6] | Ki [6]

C[C@]12C/C(=C/O)C(=O)C[C@@H]1CC[C@@H]1[C@@H]2CC[C@@]2(C)[C@H]1CC[C@]2(C)O [OXYMETHOLONE]
Not Active: IC50 [1] | IC50 [2] | IC50 [3] | Ki [3] | IC50 (Adenosine receptor A2a) | IC50 [4] | Ki [4] | IC50 [5] | Ki [5] | IC50 [6] | Ki [6]

CC(C)(CO)C(O)C(=O)NCCCO (configuration not stated) [PANTHENOL]
Not Active: IC50 [1] | IC50 [2] | IC50 [3] | Ki [3] | IC50 (Adenosine receptor A2a) | IC50 [4] | Ki [4] | IC50 [5] | Ki [5] | IC50 [6] | Ki [6]

COc1ccc(Cc2nccc3cc(OC)c(OC)cc23)cc1OC [PAPAVERINE]
Not Active: IC50 [1] | IC50 [2] | IC50 [3] | Ki [3] | IC50 (Adenosine receptor A2a) | IC50 [4] | Ki [4] | IC50 [5] | Ki [5] | IC50 [6] | Ki [6]

OCCN1CCN(CCCN2c3ccccc3Sc3ccc(Cl)cc32)CC1 [PERPHENAZINE]
Not Active: IC50 [1] | IC50 [2] | IC50 [3] | Ki [3] | IC50 (Adenosine receptor A2a) | IC50 [4] | Ki [4] | IC50 [5] | Ki [5] | IC50 [6] | Ki [6]

CCCCC1C(=O)N(c2ccccc2)N(c2ccccc2)C1=O [PHENYLBUTAZONE]
Not Active: IC50 [1] | IC50 [2] | IC50 [3] | Ki [3] | IC50 (Adenosine receptor A2a) | IC50 [4] | Ki [4] | IC50 [5] | Ki [5] | IC50 [6] | Ki [6]

Cc1cccc(Nc2cc(Cl)nc(SCC(=O)O)n2)c1C [PIRINIXIC ACID]
Not Active: IC50 [1] | IC50 [2] | IC50 [3] | Ki [3] | IC50 (Adenosine receptor A2a) | IC50 [4] | Ki [4] | IC50 [5] | Ki [5] | IC50 [6] | Ki [6]

CC[C@H](C)C(=O)O[C@H]1C[C@H](O)C=C2C=C[C@H](C)[C@H](CC[C@@H](O)C[C@@H](O)CC(=O)O)[C@H]21 [PRAVASTATIN]
Not Active: IC50 [1] | IC50 [2] | IC50 [3] | Ki [3] | IC50 (Adenosine receptor A2a) | IC50 [4] | Ki [4] | IC50 [5] | Ki [5] | IC50 [6] | Ki [6]

CC(C)(Sc1cc(C(C)(C)C)c(O)c(C(C)(C)C)c1)Sc1cc(C(C)(C)C)c(O)c(C(C)(C)C)c1 [PROBUCOL]
Not Active: IC50 [1] | IC50 [2] | IC50 [3] | Ki [3] | IC50 (Adenosine receptor A2a) | IC50 [4] | Ki [4] | IC50 [5] | Ki [5] | IC50 [6] | Ki [6]

COBALT(II) ACETYLACETONATE
Not Active: IC50 [1] | Ki [1] | IC50 [2] | Ki [2] | IC50 [3] | Ki [3] | IC50 (Adenosine receptor A2a) | Ki (Adenosine receptor A2a) | IC50 [4] | Ki [4] | IC50 [5] | Ki [5] | IC50 [6] | Ki [6]

INSULIN HUMAN
Not Active: IC50 [1] | Ki [1] | IC50 [2] | Ki [2] | IC50 [3] | Ki [3] | IC50 (Adenosine receptor A2a) | Ki (Adenosine receptor A2a) | IC50 [4] | Ki [4] | IC50 [5] | Ki [5] | IC50 [6] | Ki [6]

POLYVINYL ALCOHOL
Not Active: IC50 [1] | Ki [1] | IC50 [2] | Ki [2] | IC50 [3] | Ki [3] | IC50 (Adenosine receptor A2a) | Ki (Adenosine receptor A2a) | IC50 [4] | Ki [4] | IC50 [5] | Ki [5] | IC50 [6] | Ki [6]

From ChEMBL document CHEMBL1909046, “DrugMatrix in vitro pharmacology data”
